# In patent US10227331B2 (priority 2015, dated 2019):
# Tests used:
# [1] = target: IMP-1 (Serratia marcescens, UniProt P52699); assay: biochemical; format: biochemical; details: CCF2-FA substrate, 2 hours at 25° C; read-out: IMP-1 IC50
# How it was run: (§1)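 Class B activity is measured in the presence of compound by fluorescence with CCF2-FA after a 2-hour incubation at 25° C. IC50 is taken from a 4-parameter fit of semi-logarithmic dose-response data.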
# [2] = target: NDM-1 (Klebsiella pneumoniae, UniProt C7C422); assay: biochemical; format: biochemical; details: CCF2-FA substrate, 2 hours at 25° C; read-out: NDM-1 IC50
# NDM-1, sequence (C7C422 whole entry, looked up, species assumed): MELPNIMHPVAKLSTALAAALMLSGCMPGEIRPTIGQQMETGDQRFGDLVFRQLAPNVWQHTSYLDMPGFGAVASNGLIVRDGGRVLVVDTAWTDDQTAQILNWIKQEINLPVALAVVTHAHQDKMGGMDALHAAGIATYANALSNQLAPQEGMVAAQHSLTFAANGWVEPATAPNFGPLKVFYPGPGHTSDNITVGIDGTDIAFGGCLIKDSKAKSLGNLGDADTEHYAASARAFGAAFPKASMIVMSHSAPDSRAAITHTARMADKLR
# How it was run: as §1
# [3] = target: VIM-1 (Pseudomonas aeruginosa (strain ATCC 15692 / DSM 22644 / CIP 104116 / JCM 14847 / LMG 12228 / 1C / PRS 101 / PAO1), UniProt A0A0F7KYQ8); assay: biochemical; details: CCF2-FA substrate, 2 hours at 25° C
# How it was run: as §1
# [4] = test system: P. aeruginosa expressing IMP-1, efflux+ (MB9798); format: cell-based, Pseudomonas aeruginosa; details: for P. aeruginosa expressing IMP-1, efflux+ (MB9798) MITC95: imipenem at 2 μg/mL, in the presence of a class A, C, D serine β-lactamase inhibitor closely related to relebactam; for Efflux ratio: ratio MITC95 PA_9798/MITC95 PA_9799
# Description: (§2) The strain background is Pseudomonas aeruginosa PAO1.
# [5] = test system: P. aeruginosa expressing IMP-1, efflux− (MB9799); assay: Efflux: concentration of MBL inhibitor which restores susceptibility to imipenem; format: cell-based, Pseudomonas aeruginosa; details: imipenem at 2 μg/mL, in the presence of a class A, C, D serine β-lactamase inhibitor closely related to relebactam
# Description: as §2
# [6] = test system: Escherichia coli expressing NDM-1 (CLB30005, CLB30016); format: cell-based; details: with imipenem 1 μg/ml; 95% inhibition of bacterial growth
# How it was run: (§3)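 Clinical strains grown overnight on blood agar, then diluted 1:100 in 1.1× CAMHB and exposed to test compound with imipenem at 1 μg/ml. Incubation was 22–24 h at 35° C; growth was read by absorbance to find the compound concentration restoring imipenem susceptibility.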
# [7] = test system: Serratia marcescens expressing IMP-1 (CL5741); format: cell-based; details: with imipenem 1 μg/ml; 95% inhibition of bacterial growth
# How it was run: as §3
# [8] = test system: Klebsiella pneumoniae expressing VIM-1 (IHMA599644); format: cell-based; details: with imipenem 1 μg/ml; 95% inhibition of bacterial growth
# How it was run: as §3
# IMP-1, sequence (P52699 whole entry, looked up, species assumed): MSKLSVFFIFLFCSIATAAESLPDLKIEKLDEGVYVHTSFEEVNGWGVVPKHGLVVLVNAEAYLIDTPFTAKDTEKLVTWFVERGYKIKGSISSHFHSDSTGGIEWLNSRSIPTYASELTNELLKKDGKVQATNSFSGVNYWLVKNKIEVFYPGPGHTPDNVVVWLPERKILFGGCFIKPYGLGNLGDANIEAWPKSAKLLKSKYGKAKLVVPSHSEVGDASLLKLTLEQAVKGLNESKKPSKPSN
compound,measurement,setting,value
"Cc1n[nH]c2cc(F)c(-c3ccc(S(=O)(=O)CCN)c(S(N)(=O)=O)c3-c3nnn[nH]3)cc12.O=C(O)C(F)(F)F [Example 162, 2-((4-(6-fluoro-3-methyl-1H-indazol-5-yl)-2-sulfamoyl-3-(1H-tetrazol-5-yl)phenyl)sulfonyl)ethanaminium 2,2,2-trifluoroacetate]",IC50,[1],2.81 nM
same,IC50,[2],2.78 nM
same,IC50,[3],0.32 nM
same,"P. aeruginosa expressing IMP-1, efflux+ (MB9798) MITC95",[4],100 µM
same,Efflux ratio,[4],63.98
same,"P. aeruginosa expressing IMP-1, efflux− (MB9799) MITC95",[5],1.563 µM
same,Escherichia coli expressing NDM-1 (CLB30016) MITC95,[6],3.125 µM
same,Serratia marcescens expressing IMP-1 (CL5741) MITC95,[7],3.125 µM
same,Klebsiella pneumoniae expressing VIM-1 (IHMA599644) MITC95,[8],6.25 µM
"NCCS(=O)(=O)c1ccc(-c2ccc3[nH]nc(C(F)(F)F)c3c2)c(-c2nnn[nH]2)c1S(N)(=O)=O.O=C(O)C(F)(F)F [Example 163, 2-((2-sulfamoyl-3-(1H-tetrazol-5-yl)-4-(3-(trifluoromethyl)-1H-indazol-5-yl)phenyl)sulfonyl)ethanaminium 2,2,2-trifluoroacetate]",IC50,[1],1.22 nM
same,IC50,[2],0.98 nM
same,IC50,[3],0.12 nM
same,"P. aeruginosa expressing IMP-1, efflux+ (MB9798) MITC95",[4],100 µM
same,Efflux ratio,[4],127.99
same,"P. aeruginosa expressing IMP-1, efflux− (MB9799) MITC95",[5],0.7813 µM
same,Escherichia coli expressing NDM-1 (CLB30016) MITC95,[6],1.563 µM
same,Serratia marcescens expressing IMP-1 (CL5741) MITC95,[7],3.125 µM
same,Klebsiella pneumoniae expressing VIM-1 (IHMA599644) MITC95,[8],3.125 µM
"COc1ccc(-c2ccc(S(=O)(=O)CCN)c(S(N)(=O)=O)c2-c2nnn[nH]2)c2[nH]c(C(F)(F)F)nc12.O=C(O)C(F)(F)F [Example 164, 2-((4-(4-methoxy-2-(trifluoromethyl)-1H-benzo[d]imidazol-7-yl)-2-sulfamoyl-3-(1H-tetrazol-5-yl)phenyl)sulfonyl)ethanaminium 2,2,2-trifluoroacetate]",IC50,[1],0.233 nM
same,IC50,[2],0.147 nM
same,IC50,[3],0.143 nM
same,"P. aeruginosa expressing IMP-1, efflux+ (MB9798) MITC95",[4],6.25 µM
same,Efflux ratio,[4],2.00
same,"P. aeruginosa expressing IMP-1, efflux− (MB9799) MITC95",[5],3.125 µM
same,Escherichia coli expressing NDM-1 (CLB30016) MITC95,[6],6.25 µM
same,Serratia marcescens expressing IMP-1 (CL5741) MITC95,[7],3.125 µM
same,Klebsiella pneumoniae expressing VIM-1 (IHMA599644) MITC95,[8],6.25 µM
"NCCS(=O)(=O)c1ccc(-c2ccc3c(=O)nc[nH]c3c2)c(-c2nnn[nH]2)c1S(N)(=O)=O.O=C(O)C(F)(F)F [Example 165, 2-((4-(4-oxo-1,4-dihydroquinazolin-7-yl)-2-sulfamoyl-3-(1H-tetrazol-5-yl)phenyl)sulfonyl)ethanaminium 2,2,2-trifluoroacetate]",IC50,[1],1.6 nM
same,IC50,[2],2.48 nM
same,IC50,[3],0.571 nM
same,"P. aeruginosa expressing IMP-1, efflux+ (MB9798) MITC95",[4],12.5 µM
same,Efflux ratio,[4],4.00
same,"P. aeruginosa expressing IMP-1, efflux− (MB9799) MITC95",[5],3.125 µM
same,Escherichia coli expressing NDM-1 (CLB30016) MITC95,[6],3.125 µM
same,Serratia marcescens expressing IMP-1 (CL5741) MITC95,[7],3.125 µM
same,Klebsiella pneumoniae expressing VIM-1 (IHMA599644) MITC95,[8],6.25 µM
"NCCS(=O)(=O)c1ccc(-c2ccc3c(c2)CNC3=O)c(-c2nnn[nH]2)c1S(N)(=O)=O.O=C(O)C(F)(F)F [Example 166, 2-((4-(1-oxoisoindolin-5-yl)-2-sulfamoyl-3-(1H-tetrazol-5-yl)phenyl)sulfonyl)ethanaminium 2,2,2-trifluoroacetate]",IC50,[1],1.51 nM
same,IC50,[2],2.79 nM
same,IC50,[3],0.327 nM
same,"P. aeruginosa expressing IMP-1, efflux+ (MB9798) MITC95",[4],12.5 µM
same,Efflux ratio,[4],8.00
same,"P. aeruginosa expressing IMP-1, efflux− (MB9799) MITC95",[5],1.563 µM
same,Escherichia coli expressing NDM-1 (CLB30016) MITC95,[6],1.563 µM
same,Serratia marcescens expressing IMP-1 (CL5741) MITC95,[7],3.125 µM
same,Klebsiella pneumoniae expressing VIM-1 (IHMA599644) MITC95,[8],6.25 µM
"NCCS(=O)(=O)c1ccc(-c2ccc3[nH]ncc3c2)c(-c2nnn[nH]2)c1S(N)(=O)=O.O=C(O)C(F)(F)F [Example 167, 2-((4-(1H-indazol-5-yl)-2-sulfamoyl-3-(1H-tetrazol-5-yl)phenyl)sulfonyl)ethanaminium 2,2,2-trifluoroacetate]",IC50,[1],1.07 nM
same,IC50,[2],0.882 nM
same,IC50,[3],0.343 nM
same,"P. aeruginosa expressing IMP-1, efflux+ (MB9798) MITC95",[4],6.25 µM
same,Efflux ratio,[4],8.00
same,"P. aeruginosa expressing IMP-1, efflux− (MB9799) MITC95",[5],0.7813 µM
same,Escherichia coli expressing NDM-1 (CLB30016) MITC95,[6],6.25 µM
same,Serratia marcescens expressing IMP-1 (CL5741) MITC95,[7],3.125 µM
same,Klebsiella pneumoniae expressing VIM-1 (IHMA599644) MITC95,[8],3.125 µM
"NCCS(=O)(=O)c1ccc(-c2cnc(N)c(F)c2)c(-c2nnn[nH]2)c1S(N)(=O)=O.O=C(O)C(F)(F)F [Example 168, 2-((4-(6-amino-5-fluoropyridin-3-yl)-2-sulfamoyl-3-(1H-tetrazol-5-yl)phenyl)sulfonyl)ethanaminium 2,2,2-trifluoroacetate]",IC50,[1],2.02 nM
same,IC50,[2],2.5 nM
same,IC50,[3],0.515 nM
same,"P. aeruginosa expressing IMP-1, efflux+ (MB9798) MITC95",[4],6.25 µM
same,Efflux ratio,[4],4.00
same,"P. aeruginosa expressing IMP-1, efflux− (MB9799) MITC95",[5],1.563 µM
same,Escherichia coli expressing NDM-1 (CLB30016) MITC95,[6],1.563 µM
same,Serratia marcescens expressing IMP-1 (CL5741) MITC95,[7],3.125 µM
same,Klebsiella pneumoniae expressing VIM-1 (IHMA599644) MITC95,[8],6.25 µM
"COc1cc(-c2ccc(S(=O)(=O)CCN)c(S(N)(=O)=O)c2-c2nnn[nH]2)cnc1N.O=C(O)C(F)(F)F [Example 169, 2-((4-(6-amino-5-methoxypyridin-3-yl)-2-sulfamoyl-3-(1H-tetrazol-5-yl)phenyl)sulfonyl)ethanaminium 2,2,2-trifluoroacetate]",IC50,[1],5.27 nM
same,IC50,[2],6 nM
same,IC50,[3],1.03 nM
same,"P. aeruginosa expressing IMP-1, efflux+ (MB9798) MITC95",[4],25 µM
same,Efflux ratio,[4],15.99
same,"P. aeruginosa expressing IMP-1, efflux− (MB9799) MITC95",[5],1.563 µM
same,Escherichia coli expressing NDM-1 (CLB30016) MITC95,[6],0.7813 µM
same,Serratia marcescens expressing IMP-1 (CL5741) MITC95,[7],3.125 µM
same,Klebsiella pneumoniae expressing VIM-1 (IHMA599644) MITC95,[8],6.25 µM
"Cc1nc(N)ccc1-c1ccc(S(=O)(=O)CCN)c(S(N)(=O)=O)c1-c1nnn[nH]1.O=C(O)C(F)(F)F [Example 170, 2-((4-(6-amino-2-methylpyridin-3-yl)-2-sulfamoyl-3-(1H-tetrazol-5-yl)phenyl)sulfonyl)ethanaminium 2,2,2-trifluoroacetate]",IC50,[1],2.87 nM
same,IC50,[2],3.48 nM
same,IC50,[3],1.01 nM
same,"P. aeruginosa expressing IMP-1, efflux+ (MB9798) MITC95",[4],6.25 µM
same,Efflux ratio,[4],4.00
same,"P. aeruginosa expressing IMP-1, efflux− (MB9799) MITC95",[5],1.563 µM
same,Escherichia coli expressing NDM-1 (CLB30016) MITC95,[6],0.3906 µM
same,Serratia marcescens expressing IMP-1 (CL5741) MITC95,[7],0.7813 µM
same,Klebsiella pneumoniae expressing VIM-1 (IHMA599644) MITC95,[8],3.125 µM
NCCS(=O)(=O)c1ccc(-c2cccc3cnccc23)c(-c2nnn[nH]2)c1S(N)(=O)=O.O=C(O)C(F)(F)F [Example 171],IC50,[1],1.02 nM
same,IC50,[2],0.306 nM
same,IC50,[3],0.272 nM
same,"P. aeruginosa expressing IMP-1, efflux+ (MB9798) MITC95",[4],12.5 µM
same,Efflux ratio,[4],8.00
same,"P. aeruginosa expressing IMP-1, efflux− (MB9799) MITC95",[5],1.563 µM
same,Escherichia coli expressing NDM-1 (CLB30016) MITC95,[6],1.563 µM
same,Serratia marcescens expressing IMP-1 (CL5741) MITC95,[7],3.125 µM
same,Klebsiella pneumoniae expressing VIM-1 (IHMA599644) MITC95,[8],6.25 µM
"Cc1cc(-c2ccc(S(=O)(=O)CCN)c(S(N)(=O)=O)c2-c2nnn[nH]2)cnc1N.O=C(O)C(F)(F)F [Example 172, 2-((4-(6-amino-5-methylpyridin-3-yl)-2-sulfamoyl-3-(1H-tetrazol-5-yl)phenyl)sulfonyl)ethanaminium 2,2,2-trifluoroacetate]",IC50,[1],4.9 nM
same,IC50,[2],2.98 nM
same,IC50,[3],0.193 nM
same,"P. aeruginosa expressing IMP-1, efflux+ (MB9798) MITC95",[4],6.25 µM
same,Efflux ratio,[4],3.51
same,"P. aeruginosa expressing IMP-1, efflux− (MB9799) MITC95",[5],1.781 µM
same,Escherichia coli expressing NDM-1 (CLB30016) MITC95,[6],0.25 µM
same,Serratia marcescens expressing IMP-1 (CL5741) MITC95,[7],1.281 µM
same,Klebsiella pneumoniae expressing VIM-1 (IHMA599644) MITC95,[8],3.125 µM
"NCCS(=O)(=O)c1ccc(-c2cccc3cn[nH]c23)c(-c2nnn[nH]2)c1S(N)(=O)=O.O=C(O)C(F)(F)F [Example 173, 2-((4-(1H-indazol-7-yl)-2-sulfamoyl-3-(1H-tetrazol-5-yl)phenyl)sulfonyl)ethanaminium 2,2,2-trifluoroacetate]",IC50,[1],0.16 nM
same,IC50,[2],0.338 nM
same,IC50,[3],0.264 nM
same,"P. aeruginosa expressing IMP-1, efflux+ (MB9798) MITC95",[4],0.8906 µM
same,Efflux ratio,[4],2.00
same,"P. aeruginosa expressing IMP-1, efflux− (MB9799) MITC95",[5],0.4453 µM
same,Escherichia coli expressing NDM-1 (CLB30016) MITC95,[6],0.25 µM
same,Serratia marcescens expressing IMP-1 (CL5741) MITC95,[7],0.8906 µM
same,Klebsiella pneumoniae expressing VIM-1 (IHMA599644) MITC95,[8],0.8906 µM
"NCCS(=O)(=O)c1ccc(-c2ccc3scnc3c2)c(-c2nnn[nH]2)c1S(N)(=O)=O.O=C(O)C(F)(F)F [Example 174, 2-((4-(benzo[d]thiazol-5-yl)-2-sulfamoyl-3 (1H-tetrazol-5-yl)phenyl)sulfonyl)ethanaminium 2,2,2-trifluoroacetate]",IC50,[1],0.22 nM
same,IC50,[2],0.392 nM
same,IC50,[3],0.14 nM
same,"P. aeruginosa expressing IMP-1, efflux+ (MB9798) MITC95",[4],3.125 µM
same,Efflux ratio,[4],8.00
same,"P. aeruginosa expressing IMP-1, efflux− (MB9799) MITC95",[5],0.3906 µM
same,Escherichia coli expressing NDM-1 (CLB30016) MITC95,[6],0.3906 µM
same,Serratia marcescens expressing IMP-1 (CL5741) MITC95,[7],0.7813 µM
same,Klebsiella pneumoniae expressing VIM-1 (IHMA599644) MITC95,[8],1.563 µM
